According to article PMC6151435, “Bioactivity In Vitro of Quercetin Glycoside Obtained in Beauveria bassiana Culture and Its Interaction with Liposome Membranes” (Molecules : A Journal of Synthetic Chemistry and Natural …, 2017):
Values after ≈ are worked out from the molar mass of the structure shown.

What was measured:
[1] = 1H-NMR study of interaction with DPPC liposomes (PrCl3 shift reagent); settings: 0.24 mM compound
Method: The ^1H-NMR method of investigating the Q 7-MeGlu and Q interaction with liposomes was described earlier by Gabrielska et al. with minor modifications. Mixtures of phospholipids (DPPC) with studied compounds were co-dissolved in a chloroform/methanol mixture (55:1 v/v) at the respective concentrations. The lipid concentration in the sample was 36 mM and that of Q 7-MeGlu and Q was 0.24 mM […]. The samples were first evaporated under a stream of nitrogen and then in a vacuum (overnight). Then the samples were hydrated with D2O and vigorously shaken (15 min) at temperature above the main phase transition of lipid (41 °C) until optical homogeneity of the mixture was reached. Next, the lipid suspension was sonicated with a 20 kHz sonicator (20 kHz, Sonic, Italy) to yield a homogeneous lipid dispersion. Briefly, before the measurements a 4 mM praseodymium trichloride (PrCl3 × 6H2O) in heavy water solution […] was added to the sample of 0.6 mL liposome suspension. ^1H-NMR parameters were as follows: spectral window 12.019 Hz, digital resolution 0.183 Hz, acquisition and delay times 2.73 s and 1.00 s, respectively, and acquisition temperature 325 K. The experiment was performed in two replicates.

[2] = ref [12]; cited from earlier work
[3] = Solubility in water (literature values); format: physicochemical; settings: from cited values

Compound	decrease (Δδ) in the splitting parameter of polar head groups resonance [1] [%]	decrease of the Iout/Iin ratio vs pure DPPC [1] [%]	increase in the half width of the membrane surface signal vs pure DPPC [1]	solubility in water [2] [µg/mL]	solubility, fold lower than rutin [3]	decrease in full width at half height (ν) of band of terminal methyl group [1] [%]	increase of the Iout/Iin ratio vs pure DPPC [1] [%]
CO[C@H]1[C@H](O)[C@@H](O)[C@H](Oc2cc(O)c3c(=O)c(O)c(-c4ccc(O)c(O)c4)oc3c2)O[C@@H]1CO [Q 7-MeGlu, quercetin 7-O-β-D-(4″-O-methyl)glucopyranoside]	56	13	~142%				
O=c1c(O)c(-c2ccc(O)c(O)c2)oc2cc(O)cc(O)c12 [Quercetin, 3,3′,4′,5,7-pentahydroxyflavone]	32		approximately 119%	0.512 (≈ 1.69 µM)	more than 240 fold	4	33
